Assay results reported in patent US11084829B2, “Ubiquitin-specific-processing protease 7 (USP7) modulators and uses thereof” (RAPT THERAPEUTICS, INC., priority 2018, dated 2021).

Each molecule was assayed against USP7 (Homo sapiens, UniProt Q93009) (assay: USP7 inhibitory potency (IC50)).
Format: biochemical
Procedure: Activity for compounds described herein is provided in Table 2, wherein potency levels are provided as follows: (Potency: USP7 IC50: A<0.01 μM; B=0.01-0.1 μM; C=>0.1 μM.

USP7, sequence (Q93009 whole entry): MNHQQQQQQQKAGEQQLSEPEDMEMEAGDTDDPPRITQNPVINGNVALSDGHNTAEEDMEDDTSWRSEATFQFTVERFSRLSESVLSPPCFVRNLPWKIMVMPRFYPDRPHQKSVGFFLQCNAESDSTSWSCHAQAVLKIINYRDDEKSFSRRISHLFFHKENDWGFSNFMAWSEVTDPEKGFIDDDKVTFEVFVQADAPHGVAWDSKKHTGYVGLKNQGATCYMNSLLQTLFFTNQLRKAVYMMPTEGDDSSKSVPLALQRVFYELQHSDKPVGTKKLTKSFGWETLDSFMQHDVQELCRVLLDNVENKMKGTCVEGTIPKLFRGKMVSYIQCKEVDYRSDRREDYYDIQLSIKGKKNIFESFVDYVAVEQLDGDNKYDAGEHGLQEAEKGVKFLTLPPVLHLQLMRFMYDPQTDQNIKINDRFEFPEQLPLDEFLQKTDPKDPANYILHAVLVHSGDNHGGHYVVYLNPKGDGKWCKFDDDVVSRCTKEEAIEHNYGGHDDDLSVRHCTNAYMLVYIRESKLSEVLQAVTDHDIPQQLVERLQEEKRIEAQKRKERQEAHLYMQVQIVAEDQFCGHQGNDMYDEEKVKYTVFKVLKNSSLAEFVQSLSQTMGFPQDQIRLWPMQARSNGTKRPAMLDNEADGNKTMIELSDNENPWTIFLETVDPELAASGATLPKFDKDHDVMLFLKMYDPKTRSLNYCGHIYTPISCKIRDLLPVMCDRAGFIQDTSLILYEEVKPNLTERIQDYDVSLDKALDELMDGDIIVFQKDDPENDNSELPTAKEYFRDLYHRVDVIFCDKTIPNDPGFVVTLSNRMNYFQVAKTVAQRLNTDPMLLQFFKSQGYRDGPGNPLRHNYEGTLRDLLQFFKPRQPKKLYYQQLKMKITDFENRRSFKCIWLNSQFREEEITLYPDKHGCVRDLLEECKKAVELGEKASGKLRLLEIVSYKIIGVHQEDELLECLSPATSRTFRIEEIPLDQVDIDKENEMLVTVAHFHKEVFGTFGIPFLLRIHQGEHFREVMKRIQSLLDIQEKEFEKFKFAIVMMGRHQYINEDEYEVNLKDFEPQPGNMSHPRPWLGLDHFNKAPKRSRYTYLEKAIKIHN

| IC50 [nM] | Structure (SMILES) |
| --- | --- |
| < 10 | Cc1cc(Cl)cc(-c2ncnc3cc(CN4C(=O)CSC4=O)sc23)c1CC1CNCCO1 (centres unmarked) [Example 171, 3-((4-(5-chloro-3-methyl-2-(morpholin-2-ylmethyl)phenyl)thieno[3,2-d]pyrimidin-6-yl)methyl)thiazolidine-2,4-dione] |
| 10 to 100 | Cc1cc(Cl)cc(-c2ncnc3cc(CN4C(=O)CCC4(C)C#N)sc23)c1CC1CNCC(C)(C)O1 (centres unmarked) [Example 195, 1-((4-(5-chloro-2-((6,6-dimethylmorpholin-2-yl)methyl)-3-methylphenyl)thieno[3,2-d]pyrimidin-6-yl)methyl)-2-methyl-5-oxopyrrolidine-2-carbonitrile] |
| > 100 | Cc1cc(Cl)cc(-c2ncnc3cc(CN4C(=O)CC[C@@H]4C(=O)O)sc23)c1C[C@@H]1CNCC(C)(C)O1 [Example 225, (R)-1-((4-(5-chloro-2-(((R)-6,6-dimethylmorpholin-2-yl)methyl)-3-methylphenyl)thieno[3,2-d]pyrimidin-6-yl)methyl)-5-oxopyrrolidine-2-carboxylic acid] |
| 10 to 100 | Cc1cc(C(F)(F)F)cc(-c2ncnc3cc(CN4C(=O)C5C(C4=O)C5(C)C)sc23)c1CN1CCNC[C@@H]1C (stereo partly drawn) [Example 59, 6,6-dimethyl-3-((4-(3-methyl-2-(((S)-2-methylpiperazin-1-yl)methyl)-5-(trifluoromethyl)phenyl)thieno[3,2-d]pyrimidin-6-yl)methyl)-3-azabicyclo[3.1.0]hexane-2,4-dione] |
| < 10 | Cc1cc(Cl)cc(-c2ccnc3cc(CN4C(=O)CCC4=O)sc23)c1C[C@@H]1CNCC(C)(C)O1 [Example 136, (R)-1-((7-(5-chloro-2-((6,6-dimethylmorpholin-2-yl)methyl)-3-methylphenyl)thieno[3,2-b]pyridin-2-yl)methyl)pyrrolidine-2,5-dione] |
| < 10 | Cc1cc(Cl)cc(-c2ccnc3cc([C@H](C)N4C(=O)C5CC5C4=O)sc23)c1C[C@@H]1CNCC(C)(C)O1 (stereo partly drawn) [Example 137, 3-((S)-1-(7-(5-chloro-2-(((R)-6,6-dimethylmorpholin-2-yl)methyl)-3-methylphenyl)thieno[3,2-b]pyridin-2-yl)ethyl)-3-azabicyclo[3.1.0]hexane-2,4-dione] |
| < 10 | C[C@H]1CNC[C@H](C)N1Cc1c(Cl)cc(Cl)cc1-c1ncnc2cc(CN3C(=O)C4CC4C3=O)sc12 (stereo partly drawn) [Example 85, 3-((4-(3,5-dichloro-2-(((2S,6S)-2,6-dimethylpiperazin-1-yl)methyl)phenyl)thieno[3,2-d]pyrimidin-6-yl)methyl)-3-azabicyclo[3.1.0]hexane-2,4-dione] |
| < 10 | C[C@H]1CNC[C@H](C)N1Cc1c(Cl)cc(Cl)cc1-c1ncnc2cc(CN3C(=O)CN(C)C3=O)sc12 [Example 94, 3-((4-(3,5-dichloro-2-(((2S,6S)-2,6-dimethylpiperazin-1-yl)methyl)phenyl)thieno[3,2-d]pyrimidin-6-yl)methyl)-1-methylimidazolidine-2,4-dione] |
| < 10 | Cc1cc(Cl)cc(-c2ncnc3cc(CN4C(=O)CN(C)C4=O)sc23)c1CC1CNCCO1 (centres unmarked) [Example 177, 3-((4-(5-chloro-3-methyl-2-(morpholin-2-ylmethyl)phenyl)thieno[3,2-d]pyrimidin-6-yl)methyl)-1-methylimidazolidine-2,4-dione] |
| 10 to 100 | Cc1cc(C(F)(F)F)cc(-c2ncnc3cc(CN4C(=O)C5CC5C4=O)sc23)c1CN1CCNC[C@@H]1C (stereo partly drawn) [Example 58, 3-((4-(3-methyl-2-(((S)-2-methylpiperazin-1-yl)methyl)-5-(trifluoromethyl)phenyl)thieno[3,2-d]pyrimidin-6-yl)methyl)-3-azabicyclo[3.1.0]hexane-2,4-dione] |
| < 10 | Cc1cc(Cl)cc(-c2ncnc3cc(Cn4c(=O)ccn(C)c4=O)sc23)c1CN1C[C@@H](C)NC[C@@H]1C [Example 66, 3-((4-(5-chloro-2-(((2S,5R)-2,5-dimethylpiperazin-1-yl)methyl)-3-methylphenyl)thieno[3,2-d]pyrimidin-6-yl)methyl)-1-methylpyrimidine-2,4(1H,3H)-dione] |
